Blank lines part the entries; values can stand above or below the molecule they belong to.
Assays:
D-Dimer response = assay: Reduction in IAS and FAS D-Dimer response in patients with COVID-19 infection; assay type: in vivo, human; details: COVID-19 patients, infused at 12 mg/hr for up to 7 days
Protocol: D-Dimer formation is elevated in patients with ARDS and COVID. A study was performed to determine the ability of TRV027 to reduce the effects of D-Dimer formation. […] Each group was monitored for an IAS D-Dimer response (>30% reduction) and a FAS D-Dimer response (>30% reduction). In the control group, 2/8 patients had greater than a 30% reduction in the IAS D-Dimer response and 1/7 patients had greater than a 30% reduction in the FAS D-Dimer response. […] Therefore, the data illustrates the effect of a peptide as provided for herein can have on the reduction in the D-Dimer response. It is anticipated that the reduction in the D-Dimer response as measured by these assays will lead to clinical benefit in patients that are infected and/or hospitalized with COVID-19.

rat AT1aR = molecular target: T1, rat AT1aR (Rattus norvegicus, UniProt P25095); assay: PathHunter β-arrestin-2 recruitment assay, rat AT1aR; assay type: cell-based; details: PathHunter β-arrestin HEK293 cells; inactive = EC50 greater than 10 uM
T1 sequence (P25095 1-359): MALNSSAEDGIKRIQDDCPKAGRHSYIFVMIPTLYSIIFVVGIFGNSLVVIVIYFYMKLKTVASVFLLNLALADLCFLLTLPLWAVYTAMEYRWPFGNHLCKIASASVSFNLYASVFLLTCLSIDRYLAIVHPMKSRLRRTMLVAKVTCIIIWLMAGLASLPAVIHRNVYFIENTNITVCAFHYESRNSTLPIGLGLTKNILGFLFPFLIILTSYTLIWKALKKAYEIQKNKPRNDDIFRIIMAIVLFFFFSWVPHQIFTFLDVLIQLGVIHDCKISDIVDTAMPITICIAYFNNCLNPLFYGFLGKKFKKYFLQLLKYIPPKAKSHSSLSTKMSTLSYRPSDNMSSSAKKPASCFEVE
Protocol: The proximal event in β-arrestin function mediated by GPCRs is recruitment to receptors following ligand binding and receptor phosphorylation by GRK's. Thus, the measure of β-arrestin recruitment was used to determine ligand efficacy for β-arrestin function.
B-arrestin-2 recruitment to the human and rat angiotensin 2 type 1 receptor (human AT1R and rat AT1aR, respectively) was measured with the PathHunter™ β-arrestin assay (DiscoveRx Corporation, Fremont Calif.). Cells, plasmid(s), and detection reagent(s) were purchased from DiscoveRx, and assays were performed per the manufacturer's instructions. Human AT1R and rat AT1aR were cloned into the pCMV-ProLink vector, verified by sequencing, and transfected into PathHunter β-arrestin HEK293 cells. Stably transfected clonal cell lines were selected with Hygromycin and G418. These clonal cell lines were used for all experiments.
For assays, 25,000 cells were seeded per well in 96-well microplates in volumes of 90 μL and allowed to grow overnight at 37° C. in 5% CO2. Peptides provided herein were dissolved in deionized water to a concentration of 1 mM. […] The microplates were then incubated at room temperature for 60 minutes, and then luminescence was measured using a NOVOstar microplate reader purchased from BMG Labtech. B-arrestin-2 recruitment to receptors was measured as relative luminescence intensity expressed in arbitrary units.

[1] = molecular target: T2, human angiotensin 2 type 1 receptor (human, UniProt P30556 1-359); assay: cell-based or functional assay
T2 sequence (looked up): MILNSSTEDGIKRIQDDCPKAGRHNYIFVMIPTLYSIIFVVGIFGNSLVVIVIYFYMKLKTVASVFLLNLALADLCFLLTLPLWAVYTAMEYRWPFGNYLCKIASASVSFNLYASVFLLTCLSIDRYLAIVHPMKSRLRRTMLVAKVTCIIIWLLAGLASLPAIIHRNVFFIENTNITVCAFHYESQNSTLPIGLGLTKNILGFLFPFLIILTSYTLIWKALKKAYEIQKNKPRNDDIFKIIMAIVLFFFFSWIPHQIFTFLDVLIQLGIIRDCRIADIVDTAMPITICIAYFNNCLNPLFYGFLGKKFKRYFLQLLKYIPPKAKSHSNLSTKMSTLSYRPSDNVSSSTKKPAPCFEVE

[2] = molecular target: T3, rat angiotensin 2 type 1 receptor (rat, UniProt P25095 1-359); assay: cell-based or functional assay
T3 sequence (looked up): T1 sequence (P25095 1-359)

Molecule: CC[C@H](C)[C@H](NC(=O)[C@H](Cc1ccc(O)cc1)NC(=O)[C@@H](NC(=O)[C@H](CCCNC(=N)N)NC(=O)CNC)C(C)C)C(=O)N[C@@H](Cc1cnc[nH]1)C(=O)N1CCC[C@H]1C(=O)N[C@H](C)C(=O)O [SEQ ID NO: 27, Sar-Arg-Val-Tyr-Ile-His-Pro-D-Ala-OH]
patients with greater than 30% reduction in the FAS D-Dimer response (D-Dimer response): 4 out of 9 | patients with greater than 30% reduction in the IAS D-Dimer response (D-Dimer response): 5 out of 11

rat AT1aR b-arrestin2 EC50 (M) (rat AT1aR): inactive
Molecule: CCCCC(=O)N(Cc1ccc(-c2ccccc2-c2nnn[nH]2)cc1)[C@H](C(=O)O)C(C)C [Valsartan]

b-arrestin2 Max (%) [1]: 47.3% | b-arrestin2 Max (%) [2]: 71.9%
Molecule: ARVYIHPA (NMAla (N-Methyl-L-alanine) at X1; D-Ala at X8) [SEQ ID NO: 44 (NMAla-Arg-Val-Tyr-Ile-His-Pro-D-Ala-OH)]

— US20210324005A1, “Beta-Arrestin Effectors and Compositions and Methods of Use Thereof” (Trevena, Inc., priority 2020, published 2021)
